Like-named read-outs stand apart in the source and are kept apart here. *1 amine or outer side, *2 acyl side, *3 side chain or, on linkers, in order; H or OH if unused. Where a SMILES comes first, the peptide text is derived from it. Side-chain parts run from the residue outwards. [ ]: non-standard residue; d: D form. The star is where a group is joined. Decanoyl(10-(4-HOOC-PhO)) = O=C(O)c1ccc(OCCCCCCCCCC(=O)*)cc1; αMePhe(2-F) = C[C@](N)(Cc1ccccc1F)C(=O)O; γGlu = O=C(O)[C@H](CCC(=O)[*:2])N[*:1]; αMeY = C[C@](N)(Cc1ccc(O)cc1)C(=O)O; αMeL = CC(C)C[C@](C)(N)C(=O)O; Orn = NCCC[C@H](N)C(=O)O; AEEA = NCCOCCOCC(=O)O; Aib = CC(C)(N)C(=O)O
Legend:
Type in all cases: cell-based
[1] = biological target: T1, hGIPR (Homo sapiens, UniProt P48546); test: Functional cAMP formation (HTRF) in HEK-293 clonal cells expressing hGIPR, 0.1% bovine casein, without or with 1.0% human serum albumin; details: for Emax: percent of maximal response to GIP(1-42)NH2; for EC50: 37° C.
T1 construct: expressed in transfected cells
T1 sequence (P48546 22-466): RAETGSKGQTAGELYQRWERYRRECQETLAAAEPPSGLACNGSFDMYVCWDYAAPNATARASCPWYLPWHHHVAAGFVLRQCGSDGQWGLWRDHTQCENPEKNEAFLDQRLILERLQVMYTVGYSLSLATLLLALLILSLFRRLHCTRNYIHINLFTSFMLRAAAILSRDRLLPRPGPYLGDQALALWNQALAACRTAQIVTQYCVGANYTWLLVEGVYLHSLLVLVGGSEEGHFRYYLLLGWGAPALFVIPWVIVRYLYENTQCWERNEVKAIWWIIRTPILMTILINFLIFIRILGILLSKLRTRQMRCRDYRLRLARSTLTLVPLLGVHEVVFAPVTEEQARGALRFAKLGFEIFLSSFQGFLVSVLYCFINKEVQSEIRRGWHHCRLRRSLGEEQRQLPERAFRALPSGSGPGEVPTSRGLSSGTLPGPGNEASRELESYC
Method in brief: (§1)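 Readings of the HTRF 665/620 nm ratio, which falls as cAMP rises, were converted to nM cAMP using a standard curve after 30 min peptide exposure at 37° C.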

[2] = biological target: T2, hGCGR (Homo sapiens, UniProt P47871); test: Functional cAMP formation (HTRF) in HEK-293 clonal cells expressing hGCGR, 0.1% bovine casein, without or with 1.0% human serum albumin; details: 37° C.
T2 construct: expressed in transfected cells
T2 sequence (P47871 26-477): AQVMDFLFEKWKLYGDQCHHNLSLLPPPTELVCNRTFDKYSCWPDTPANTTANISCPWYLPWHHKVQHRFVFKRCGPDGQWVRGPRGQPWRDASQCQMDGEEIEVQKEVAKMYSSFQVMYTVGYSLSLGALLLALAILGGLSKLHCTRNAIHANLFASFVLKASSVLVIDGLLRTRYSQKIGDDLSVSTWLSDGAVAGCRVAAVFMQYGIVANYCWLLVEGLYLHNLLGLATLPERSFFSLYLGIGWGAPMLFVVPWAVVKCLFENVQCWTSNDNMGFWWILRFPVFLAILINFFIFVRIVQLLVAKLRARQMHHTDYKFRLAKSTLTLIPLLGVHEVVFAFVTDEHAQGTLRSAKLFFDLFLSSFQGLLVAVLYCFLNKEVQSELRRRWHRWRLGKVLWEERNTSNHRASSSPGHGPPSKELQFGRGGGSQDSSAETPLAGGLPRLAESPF
Method in brief: as §1

[3] = biological target: hGLP-1R (Homo sapiens, UniProt P43220); test: Functional cAMP formation (HTRF) in HEK-293 clonal cells expressing hGLP-1R, 0.1% bovine casein, without or with 1.0% human serum albumin; set-up: expressed in transfected cells; details: for Emax: percent of maximal response to GLP-1(7-36)NH2; for EC50: 37° C.
Chain of hGLP-1R (P43220 24-463): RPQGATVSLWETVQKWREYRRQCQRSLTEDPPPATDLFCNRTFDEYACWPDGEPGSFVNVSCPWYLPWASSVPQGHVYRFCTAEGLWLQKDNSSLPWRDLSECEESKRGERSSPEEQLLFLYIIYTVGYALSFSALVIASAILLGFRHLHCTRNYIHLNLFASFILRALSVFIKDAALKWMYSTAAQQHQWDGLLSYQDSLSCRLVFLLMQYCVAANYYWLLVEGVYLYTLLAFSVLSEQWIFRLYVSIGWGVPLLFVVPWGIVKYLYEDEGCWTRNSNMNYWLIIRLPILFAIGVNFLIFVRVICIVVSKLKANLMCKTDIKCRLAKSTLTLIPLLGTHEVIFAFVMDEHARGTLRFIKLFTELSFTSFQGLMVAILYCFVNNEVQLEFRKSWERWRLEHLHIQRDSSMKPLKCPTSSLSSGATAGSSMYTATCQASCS
Method in brief: as §1

[4] = hGCGR EC50, nM (SEM, n), cAMP, 0.1% bovine casein (no human serum albumin), geometric mean
[5] = HEK293, read-out: hGLP-1R Emax, % ± SEM, cAMP, 37° C., 0.1% bovine casein, arithmetic mean

Row | SMILES | Emax ([1]; HEK293, read-out: hGIPR Emax, % ± SEM, 0.1% bovine casein and 1.0% human serum albumin, 37° C.) | Emax ([1]; HEK293, read-out: hGIPR Emax, % ± SEM, cAMP, 37° C., 0.1% bovine casein, arithmetic mean) | EC50 ([1]; hGIPR EC50, nM (SEM, n), 0.1% bovine casein and 1.0% human serum albumin, geometric mean) | EC50 ([2]; hGCGR EC50, nM (SEM, n), 0.1% bovine casein and 1.0% human serum albumin, geometric mean) | EC50 [2, 4] | Emax ([3]; HEK293, read-out: hGLP-1R Emax, % ± SEM, 0.1% bovine casein and 1.0% human serum albumin, 37° C.) | Emax [3, 5] | EC50 ([3]; hGLP-1R EC50, nM (SEM, n), 0.1% bovine casein and 1.0% human serum albumin, geometric mean) | EC50 ([1]; cAMP, 0.1% bovine casein (no human serum albumin), geometric mean, read-out: hGIPR EC50, nM (SEM, n)) | EC50 ([2]; cAMP, 0.1% bovine casein (no human serum albumin), geometric mean, read-out: hGCGR EC50, nM (SEM, n)) | EC50 ([3]; cAMP, 0.1% bovine casein (no human serum albumin), geometric mean, read-out: hGLP-1R EC50, nM (SEM, n)) | Emax ([1]; HEK293, read-out: hGIPR Emax, % ± SEM, cAMP, 37° C., 0.1% bovine casein and 1.0% human serum albumin) | EC50 ([1]; hGIPR EC50, nM (SEM, n), cAMP, 0.1% bovine casein (no human serum albumin), geometric mean) | EC50 ([1]; hGIPR EC50, nM (SEM, n), cAMP, 0.1% bovine casein and 1.0% human serum albumin, geometric mean (SEM, n)) | EC50 ([2]; hGCGR EC50, nM (SEM, n), cAMP, 0.1% bovine casein and 1.0% human serum albumin, geometric mean (SEM, n)) | Emax ([3]; HEK293, read-out: hGLP-1R Emax, % ± SEM, cAMP, 37° C., 0.1% bovine casein and 1.0% human serum albumin) | EC50 ([3]; hGLP-1R EC50, nM (SEM, n), cAMP, 0.1% bovine casein (no human serum albumin), geometric mean) | EC50 ([3]; hGLP-1R EC50, nM (SEM, n), cAMP, 0.1% bovine casein and 1.0% human serum albumin, geometric mean (SEM, n))
1 | CC[C@H](C)[C@H](NC(=O)[C@H](CC(C)C)NC(=O)[C@](C)(Cc1ccc(O)cc1)NC(=O)[C@@H](CCC(=O)O)NC(=O)[C@@H](NC(=O)[C@H](Cc1ccccc1)NC(=O)[C@H](CCC(=O)O)NC(=O)C(C)(C)NC(=O)[C@H](CCC(N)=O)NC(=O)[C@H](C)NC(=O)[C@H](CCCCNC(=O)COCCOCCNC(=O)COCCOCCNC(=O)CC[C@H](NC(=O)CCCCCCCCCOc1ccc(C(=O)O)cc1)C(=O)O)NC(=O)[C@H](CCCN)NC(=O)[C@H](CC(=O)O)NC(=O)[C@H](CC(C)C)NC(=O)[C@](C)(CC(C)C)NC(=O)[C@@H](NC(=O)[C@H](CO)NC(=O)[C@H](Cc1ccc(OC)cc1)NC(=O)[C@H](CC(=O)O)NC(=O)[C@H](CO)NC(=O)[C@@H](NC(=O)[C@](C)(Cc1ccccc1F)NC(=O)[C@@H](NC(=O)CNC(=O)[C@H](CCC(=O)O)NC(=O)C(C)(C)NC(=O)[C@@H](N)Cc1ccc(O)cc1)[C@@H](C)O)[C@@H](C)O)[C@@H](C)CC)[C@@H](C)CC)C(=O)N[C@@H](CCCCNC(=O)COCCOCCNC(=O)COCCOCCNC(=O)CC[C@H](NC(=O)CCCCCCCCCOc1ccc(C(=O)O)cc1)C(=O)O)C(=O)NCC(=O)NCC(=O)N1CCC[C@H]1C(=O)N[C@@H](CO)C(=O)N[C@@H](CO)C(=O)NCC(=O)N[C@@H](C)C(=O)N1CCC[C@H]1C(=O)N1CCC[C@H]1C(=O)N1CCC[C@H]1C(=O)N[C@@H](CO)C(N)=O [Example 278] (H-Y[Aib]EGT[αMePhe(2-F)]TSDY(Me)SI[αMeL]LD[Orn]K([AEEA-AEEA-γGlu-Decanoyl(10-(4-HOOC-PhO))])AQ[Aib]EFI[dE][αMeY]LIK([AEEA-AEEA-γGlu-Decanoyl(10-(4-HOOC-PhO))])GGPSSGAPPPS-NH2) | 91.1% | 105% | 1.41 nM | > 9950 nM | > 9950 nM | 121% | 109% | 27 nM | – | – | – | – | – | – | – | – | – | –
2 | CC[C@H](C)[C@H](NC(=O)[C@H](CCCN)NC(=O)[C@H](CC(=O)O)NC(=O)[C@H](CC(C)C)NC(=O)[C@](C)(CC(C)C)NC(=O)[C@@H](NC(=O)C(C)(C)NC(=O)[C@H](Cc1ccc(O)cc1)NC(=O)[C@H](CC(=O)O)NC(=O)[C@H](CO)NC(=O)[C@@H](NC(=O)[C@](C)(Cc1ccccc1F)NC(=O)[C@@H](NC(=O)CNC(=O)[C@H](CCC(=O)O)NC(=O)C(C)(C)NC(=O)[C@@H](N)Cc1ccc(O)cc1)[C@@H](C)O)[C@@H](C)O)[C@@H](C)CC)C(=O)N[C@@H](C)C(=O)N[C@@H](CCC(N)=O)C(=O)NC(C)(C)C(=O)N[C@@H](CCC(=O)O)C(=O)N[C@@H](Cc1ccccc1)C(=O)N[C@H](C(=O)N[C@@H](CCCCNC(=O)COCCOCCNC(=O)CC[C@H](NC(=O)CCCCCCCCCCCCC(=O)O)C(=O)O)C(=O)N[C@@](C)(Cc1ccc(O)cc1)C(=O)N[C@@H](CC(C)C)C(=O)N[C@H](C(=O)N[C@@H](CCCCNC(=O)COCCOCCNC(=O)CC[C@H](NC(=O)CCCCCCCCCCCCC(=O)O)C(=O)O)C(=O)NCC(=O)NCC(=O)N1CCC[C@H]1C(=O)N[C@@H](CO)C(=O)N[C@@H](CO)C(=O)NCC(=O)N[C@@H](C)C(=O)N1CCC[C@H]1C(=O)N1CCC[C@H]1C(=O)N1CCC[C@H]1C(=O)N[C@@H](CO)C(N)=O)[C@@H](C)CC)[C@@H](C)CC [Example 369] | – | – | – | – | – | – | – | – | 0.037 nM | > 9950 nM | 0.555 nM | – | – | – | – | – | – | –
3 | CC[C@H](C)[C@H](NC(=O)[C@H](CC(C)C)NC(=O)[C@](C)(Cc1ccc(O)cc1)NC(=O)[C@@H](CCC(=O)O)NC(=O)[C@@H](NC(=O)[C@H](Cc1ccccc1)NC(=O)[C@H](CCCCNC(=O)COCCOCCNC(=O)COCCOCCNC(=O)CC[C@H](NC(=O)CCCCCCCCCOc1ccc(C(=O)O)cc1)C(=O)O)NC(=O)C(C)(C)NC(=O)[C@H](CCC(N)=O)NC(=O)[C@H](C)NC(=O)[C@H](CCCCNC(=O)COCCOCCNC(=O)COCCOCCNC(=O)CC[C@H](NC(=O)CCCCCCCCCOc1ccc(C(=O)O)cc1)C(=O)O)NC(=O)[C@H](CCCN)NC(=O)[C@H](CC(=O)O)NC(=O)[C@H](CC(C)C)NC(=O)[C@](C)(CC(C)C)NC(=O)[C@@H](NC(=O)C(C)(C)NC(=O)[C@@H](NC(=O)[C@H](CC(=O)O)NC(=O)[C@H](CO)NC(=O)[C@@H](NC(=O)[C@](C)(Cc1ccccc1F)NC(=O)[C@@H](NC(=O)CNC(=O)[C@H](CCC(=O)O)NC(=O)C(C)(C)NC(=O)[C@@H](N)Cc1ccc(O)cc1)[C@@H](C)O)[C@@H](C)O)C(C)C)[C@@H](C)CC)[C@@H](C)CC)C(=O)N[C@@H](CCCN)C(=O)NCC(=O)NCC(=O)N1CCC[C@H]1C(=O)N[C@@H](CO)C(=O)N[C@@H](CO)C(=O)NCC(=O)N[C@@H](C)C(=O)N1CCC[C@H]1C(=O)N1CCC[C@H]1C(=O)N1CCC[C@H]1C(=O)N[C@@H](CO)C(N)=O [Example 410] (H-Y[Aib]EGT[αMePhe(2-F)]TSDV[Aib]I[αMeL]LD[Orn]K([AEEA-AEEA-γGlu-Decanoyl(10-(4-HOOC-PhO))])AQ[Aib]K([AEEA-AEEA-γGlu-Decanoyl(10-(4-HOOC-PhO))])FI[dE][αMeY]LI[Orn]GGPSSGAPPPS-NH2) | – | – | – | – | > 9950 nM | – | 94% | – | – | – | – | 86.4% | 0.0118 nM | 1.28 nM | > 9950 nM | 93.1% | 0.251 nM | 11 nM
